Activity calls are given as the source filed them. The calls are words filed in the database; no cut-off is given here.
Assays:
[1] = tested on: Human immunodeficiency virus 1; assay: Antiviral activity against HIV1 NL4-3 infected in human TZM-bl cells assessed as reduction in virus induced cytopathogenicity incubated for 1 day by luciferase reporter gene assay; assay type: functional, organism-based; conditions: Human immunodeficiency virus 1, NL4-3, TZM-bl, 24 h
[2] = Acute toxicity in Kunming mouse assessed as increase in body weight at 1000 mg/kg, ig administered as single dose; assay type: organism-based; conditions: in vivo, po
[3] = Clearance in Sprague-Dawley rat at 2 mg/kg, iv measured during 5 mins to 12 hrs by LC-MS analysis; assay type: ADME, organism-based; conditions: in vivo
[4] = tested on: Human immunodeficiency virus 1; assay: Antiviral activity against HIV1 Env-pseudotyped virus in human U87.CD4.CCR5 target cells assessed as reduction in viral infection at early stage; assay type: functional, organism-based; conditions: Human immunodeficiency virus 1, U87/CD4/CCR5
[5] = Acute toxicity in Kunming mouse assessed as induction of abnormal behaviors by measuring clonic convulsion at 1000 mg/kg, ig administered as single dose; assay type: organism-based; conditions: in vivo, po
[6] = Cmax in Sprague-Dawley rat at 20 mg/kg, po measured during 5 mins to 12 hrs by LC-MS analysis; assay type: ADME, organism-based; set-up: dose 20 mg/kg, route oral; conditions: in vivo
in vivo [7] = conditions: Sprague-Dawley, rat, iv, 2 mg/kg
[8] = Oral bioavailability in Sprague-Dawley rat at 20 mg/kg measured during 5 mins to 12 hrs by LC-MS analysis; assay type: ADME, organism-based; conditions: in vivo
[9] = tested on: Human immunodeficiency virus 1; assay: Antiviral activity against HIV1 3B infected in human MT4 cells assessed as reduction in virus-induced cell death incubated for 5 days by MTT assay; assay type: functional, organism-based; conditions: Human immunodeficiency virus 1, 3B, MT4, 120 h
[10] = Acute toxicity in Kunming mouse assessed as induction of abnormal behaviors by measuring anorexia at 1000 mg/kg, ig administered as single dose; assay type: organism-based; conditions: in vivo, po
in vivo [11] = conditions: Sprague-Dawley, rat, po, 20 mg/kg
[12] = AUC (0 to t) in Sprague-Dawley rat at 2 mg/kg, iv measured during 5 mins to 12 hrs by LC-MS analysis; assay type: ADME, organism-based; set-up: dose 2 mg/kg, time 0.083-12 hr, route intravenous; conditions: in vivo
[13] = AUC (0 to infinity) in Sprague-Dawley rat at 2 mg/kg, iv measured during 5 mins to 12 hrs by LC-MS analysis; assay type: ADME, organism-based; set-up: dose 2 mg/kg, time infinity, route intravenous; conditions: in vivo
[14] = Cmax in Sprague-Dawley rat at 2 mg/kg, iv measured during 5 mins to 12 hrs by LC-MS analysis; assay type: ADME, organism-based; set-up: dose 2 mg/kg, route intravenous; conditions: in vivo
[15] = AUC (0 to infinity) in Sprague-Dawley rat at 20 mg/kg, po measured during 5 mins to 12 hrs by LC-MS analysis; assay type: ADME, organism-based; set-up: dose 20 mg/kg, time infinity, route oral; conditions: in vivo
[16] = tested on: Human immunodeficiency virus 1; assay: Antiviral activity against HIV1 Env-pseudotyped virus in human U87.CD4.CCR5 target cells assessed as reduction in viral infection at late stage; assay type: functional, organism-based; conditions: Human immunodeficiency virus 1, U87/CD4/CCR5
MT4 = assay: Cytotoxicity in mock-infected human MT4 assessed as reduction in cell viability incubated for 5 days by MTT assay; assay type: cell-based; conditions: mt4, 120 h
[17] = Half life in Sprague-Dawley rat at 2 mg/kg, iv measured during 5 mins to 12 hrs by LC-MS analysis; conditions: in vivo
[18] = Acute toxicity in Kunming mouse assessed as induction of abnormal behaviors by measuring lethargy at 1000 mg/kg, ig administered as single dose; assay type: organism-based; conditions: in vivo, po
[19] = tested on: Human immunodeficiency virus 2; assay: Antiviral activity against HIV2 ROD infected in human MT4 cells assessed as reduction in virus-induced cell death incubated for 5 days by MTT assay; conditions: Human immunodeficiency virus 2, ISOLATE ROD, MT4, 120 h
[20] = Acute toxicity in Kunming mouse assessed as induction of animal death at 1000 mg/kg, ig administered as single dose; assay type: organism-based; conditions: in vivo, po
in vitro [21] = conditions: human, liver microsomes
Description: Stability in human liver microsomes assessed as compound remaining level incubated for 60 mins in absence of NADPH regenerating system by LC-MS/MS analysis

[22] = Acute toxicity in Kunming mouse assessed as induction of abnormal behaviors by measuring ruffled fur at 1000 mg/kg, ig administered as single dose; assay type: organism-based; conditions: in vivo, po
[23] = Mean residence time (0 to infinity) in Sprague-Dawley rat at 2 mg/kg, iv measured during 5 mins to 12 hrs by LC-MS analysis; conditions: in vivo
[24] = Stability in human plasma assessed as compound remaining level at 2 uM incubated for 120 mins at 37 degC by LC-MS/MS analysis; assay type: ADME, cell-free; conditions: 2 h
[25] = Half life in Sprague-Dawley rat at 20 mg/kg, po measured during 5 mins to 12 hrs by LC-MS analysis; conditions: in vivo
[26] = molecular target: Structural capsid protein (Human immunodeficiency virus 1) (UniProt Q76129); assay: Inhibition of HIV1 NL4-3 capsid protein assembly at 50 uM measured every 1 min for 19 mins
Structural capsid protein (Human immunodeficiency virus 1), sequence (Q76129 as listed by the source): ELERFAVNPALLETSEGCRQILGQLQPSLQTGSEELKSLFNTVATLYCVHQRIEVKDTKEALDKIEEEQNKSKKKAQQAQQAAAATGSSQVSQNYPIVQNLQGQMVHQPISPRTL

[27] = Volume of distribution in Sprague-Dawley rat at 2 mg/kg, iv measured during 5 mins to 12 hrs by LC-MS analysis; assay type: ADME, organism-based; conditions: in vivo
in vitro [28] = conditions: human, liver microsomes; remark: listed apart in the source
Description: Stability in human liver microsomes assessed as compound remaining level incubated for 60 mins in presence of NADPH regenerating system by LC-MS/MS analysis

[29] = Mean residence time (0 to infinity) in Sprague-Dawley rat at 20 mg/kg, po measured during 5 mins to 12 hrs by LC-MS analysis; conditions: in vivo
TZM = assay: Cytotoxicity in uninfected human TZM-bl assessed as reduction in cell viability incubated for 1 day by Cyto-tox-Glo cytotoxicity assay; assay type: cell-based; conditions: 24 h
[30] = human, microsomes
Description: Intrinsic clearance in human liver microsomes in presence of NADPH regenerating system by LC-MS/MS analysis

## COc1ccc(N(C)C(=O)[C@H](Cc2ccccc2)NC(=O)CN2CCN(S(=O)(=O)c3ccc(N)cc3)CC2=O)cc1
[1]
  EC50: 90 nM
[2]
  Activity: Non-Toxic
[3]
  clearance: 67.7 mL/min/kg
[4]
  IC50: 8.96 nM
[5]
  Activity: Non-Toxic
[6]
  Cmax: 83.8 ng/mL
In vivo [7]
  Tmax: 4.98 min
[8]
  F: 23%
[9]
  EC50: 210 nM
[10]
  Activity: Non-Toxic
In vivo [11]
  Tmax: 15 min
[12]
  AUC(0-t): 506 ng·h/mL
[13]
  AUC: 511.5 ng·h/mL
[14]
  Cmax: 1280 ng/mL
[15]
  AUC: 120.6 ng·h/mL
[16]
  IC50: 240 nM
MT4
  CC50: 179000 nM
[17]
  half-life: 60 min
[18]
  Activity: Non-Toxic
[19]
  EC50: 31 nM
[20]
  Activity: Non-Toxic
In vitro [21]
  remaining at 1 h: 93.4%
[22]
  Activity: Non-Toxic
[23]
  MRT inf: 42 min
[24]
  Stability: 88.5%
[25]
  half-life: 72 min
[26]
  inhibition: Active
[27]
  Vd: 5.75 L/kg
In vitro [28]
  remaining at 1 h: 0%
[29]
  MRT inf: 108 min
TZM
  CC50: > 34500 nM
[30]
  CLH: 342 µL/min/mg

Reference: ChEMBL document CHEMBL4342517, “Design, Synthesis, and Mechanism Study of Benzenesulfonamide-Containing Phenylalanine Derivatives as Novel HIV-1 Capsid Inhibitors with Improved Antiviral Activities” (J Med Chem, 2020)
